Data as given in ChEMBL document CHEMBL1201862, “PubChem BioAssay data set” (2004).
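Cells were grown in 96-well plates and exposed to each compound for 48 hours at five concentrations; endpoints were interpolated linearly between bracketing concentrations, or set to the highest concentration if not reached. Here, GI50 denotes the concentration required for 50% inhibition of growth.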 The source made the active and inactive calls. Cut-off read from the data, not from the text of the source: active = GI50 up to about 1.1 µM and inactive = higher.

How the values were obtained:
Experiment in all cases: NCI anticancer screen, dose series, 48 h
[1] = tested on: 786-0
[2] = tested on: CCRF-CEM
[3] = tested on: HCT-15
[4] = tested on: HOP-62
[5] = tested on: HOP-92
[6] = tested on: Hs-578T
[7] = tested on: MCF7
[8] = tested on: MDA-MB-231
[9] = tested on: MDA-MB-435
[10] = tested on: MDA-N
[11] = tested on: Malme-3M
[12] = tested on: NCI-H522
[13] = tested on: NCI/ADR-RES
[14] = tested on: PC-3
[15] = tested on: RPMI-8226
[16] = tested on: T47D
[17] = tested on: UACC-62
[18] = tested on: DU-145

SMILES	GI50 [1]	GI50 [2]	GI50 [3] [µM]	GI50 [4]	GI50 [5]	GI50 [6]	GI50 [7]	GI50 [8]	GI50 [9]	GI50 [10]	GI50 [11]	GI50 [12]	GI50 [13]	GI50 [14]	GI50 [15]	GI50 [16]	GI50 [17]	GI50 [18]
N#C[C@H](c1ccccn1)c1nc2ccccc2nc1Cl	> 100 µM (inactive)	> 100 µM (inactive)	> 100	> 100 µM (inactive)	> 100 µM (inactive)	> 100 µM (inactive)	> 100 µM (inactive)	> 100 µM (inactive)	> 100 µM (inactive)	> 100 µM (inactive)	> 100 µM (inactive)	> 100 µM (inactive)	> 100 µM (inactive)	> 100 µM (inactive)	> 100 µM (inactive)	> 100 µM (inactive)	> 100 µM (inactive)	–
Cc1cc2nc3c(C(O)CO)nn(-c4ccccc4)c3nc2cc1C (centres undefined)	17.9 µM (inactive)	–	14.9	19.4 µM (inactive)	15.5 µM (inactive)	31.6 µM (inactive)	20.2 µM (inactive)	22.1 µM (inactive)	21.2 µM (inactive)	18.3 µM (inactive)	–	22.6 µM (inactive)	16.1 µM (inactive)	14.4 µM (inactive)	6.21 µM (inactive)	11.5 µM (inactive)	–	15.4 µM (inactive)
CC(C)N(C)C(=O)C12C3C4C1C1C2C3C41C#N (centres undefined)	> 100 µM (inactive)	> 100 µM (inactive)	> 100	> 100 µM (inactive)	> 100 µM (inactive)	> 100 µM (inactive)	> 100 µM (inactive)	> 100 µM (inactive)	> 100 µM (inactive)	> 100 µM (inactive)	–	> 100 µM (inactive)	> 100 µM (inactive)	> 100 µM (inactive)	–	> 100 µM (inactive)	> 100 µM (inactive)	> 100 µM (inactive)
CN(C)c1cccc2c1C(=O)C=CC21CCc2ccc(N(C)C)c3c(N(C)C)ccc1c23 (centres undefined)	12.7 µM (inactive)	6.41 µM (inactive)	–	14.5 µM (inactive)	12.3 µM (inactive)	17.4 µM (inactive)	11.7 µM (inactive)	13.6 µM (inactive)	10.3 µM (inactive)	11.2 µM (inactive)	11.5 µM (inactive)	–	56.8 µM (inactive)	11.6 µM (inactive)	16.9 µM (inactive)	66.4 µM (inactive)	12.9 µM (inactive)	5.26 µM (inactive)
CCOC(=O)c1csc(NC(=O)CN2CCCC2)n1	–	> 100 µM (inactive)	> 100	> 100 µM (inactive)	> 100 µM (inactive)	> 100 µM (inactive)	> 100 µM (inactive)	> 100 µM (inactive)	> 100 µM (inactive)	> 100 µM (inactive)	–	–	> 100 µM (inactive)	> 100 µM (inactive)	> 100 µM (inactive)	> 100 µM (inactive)	> 100 µM (inactive)	> 100 µM (inactive)
Cc1ccc(S(=O)(=O)NCCCSCCN)cc1	–	> 100 µM (inactive)	> 100	–	> 100 µM (inactive)	> 100 µM (inactive)	> 100 µM (inactive)	> 100 µM (inactive)	> 100 µM (inactive)	> 100 µM (inactive)	–	> 100 µM (inactive)	> 100 µM (inactive)	> 100 µM (inactive)	–	> 100 µM (inactive)	–	> 100 µM (inactive)
CN(C)CCCn1c(-c2ccc(Br)cc2)cs/c1=N\c1ccccc1	–	28.8 µM (inactive)	21.1	12.9 µM (inactive)	15.2 µM (inactive)	–	16 µM (inactive)	15.1 µM (inactive)	18.7 µM (inactive)	13.8 µM (inactive)	–	–	14.3 µM (inactive)	11.2 µM (inactive)	12.6 µM (inactive)	–	13.7 µM (inactive)	–
